Data on 2 compounds can be found in paper PMC9967152 (International Journal of Molecular Sciences, 2023).

Where a SMILES comes first, the peptide text is derived from it. [ ]: non-standard residue; d: D form. The star is where a group is joined. Daunorubicin(13-NOCH2CO) = COc1cccc2c1C(=O)c1c(O)c3c(c(O)c1C2=O)C[C@@](O)(C(C)=NOCC(=O)*)C[C@@H]3O[C@H]1C[C@H](N)[C@H](O)[C@H](C)O1; Nle = CCCC[C@H](N)C(=O)O

What is called IC50 is the midpoint of a concentration-inhibition curve. Low readings indicate inhibition by little substance, high ones a need for much substance.

The nature of data set [1]: Stability in incomplete (serum-free) DMEM. The data set is classed as in vitro ADME. The conditions noted are these: 25 µM, 37 °C, 600 rpm, LC–MS, n = 2. As to the method: The conjugates were incubated in incomplete DMEM for 3 h (similarly to the internalisation studies) or in 2.5% FBS containing DMEM for 24 h (conditions for the MTT assay). […] No significant loss of L1 and L5 (<20%) or L6 (<30%) was observed after 3 h (see Supplementary Materials, Figure S17).
DMSO stock solutions of the conjugates (2.5 mM) were diluted in DMEM free from or containing 2.5% FBS, to a final concentration of 25 μM. The mixture was incubated and stirred at 37 °C, 600 rpm, and 30 µL aliquots were collected after 0 min, 0.5, 1, 2, 4, 8 and 24 h, in duplicates. Then, to each sample, 90 µL of 0.1% formic acid containing MeCN was added and the samples were frozen at −25 °C for ≥30 min to aid protein precipitation. Large FBS components were removed by centrifugation (15 min, 5000 g, 4 °C). Aliquots of 50 µL supernatant were diluted with an equal volume of ddH2O + 0.1% formic acid and analysed by LC–MS. Control measurements were performed in the same manner (25 μM bioconjugate in 100% ddH2O).

The nature of data set [2]: Stability in mouse plasma. Format: in vitro ADME. The conditions noted are these: 37 °C, HPLC-MS. As to the method:
Due to their low IC50 values and internalisation on the tested cell lines, conjugates L1, L5 and L6 were chosen for investigation of their stability in mouse plasma, as potential candidates for in vivo studies. They were incubated at a concentration of 10 µM, with mouse plasma for 24 h at 37 °C. Samples were collected at 0 h, 30 min, 1 h, 2 h, 4 h, 8 h and 24 h and analysed by HPLC-MS. […] Furthermore, after 2 h, L1 starts to release the toxic metabolite Dau=Aoa-Leu-OH, whereas this happens only after 24 h for L5 and L6, in a considerably low amount (see Supplementary Materials, Figures S18–S20).
The conjugates were dissolved in ddH2O containing 10% DMSO (stock solution: 100 μM) and diluted with mouse plasma to a final concentration of 10 μM. The mixture was incubated and stirred at 37 °C, 600 rpm, and 30 µL aliquots were collected after 0 min, 0.5, 1, 2, 4, 8 and 24 h, in triplicates. Then, to each plasma sample, 90 µL of 0.1% formic acid containing MeCN was added, and the samples were frozen at −25 °C for ≥30 min to aid protein precipitation. Large plasma proteins were removed by centrifugation (15 min, 5000× g, 4 °C). Aliquots of 50 µL supernatant were diluted with an equal volume of ddH2O + 0.1% formic acid and analysed by LC–MS. Control measurements were performed in the same manner (10 μM bioconjugate in 100% ddH2O).

Data set [3] is described as follows: Metabolism in rat liver lysosomal homogenate. Format: in vitro ADME. Conditions: 0.2 M NaOAc pH 5.05, 37 °C, conjugate–lysosomal protein 1:10 (w/w), HPLC-MS, triplicates. As to the method:
All the conjugates contain a cathepsin B cleavable spacer, either GFLG or LRRY, to allow the release of the toxic payload in lysosomes after receptor-mediated internalisation. We explored the metabolism of L1, L3, L5 and L6 in rat liver lysosomal homogenate to mimic this situation. The experiment was performed over 72 h, sampling at 0 min, 15 min, 30 min, 1 h, 2 h, 6 h, 24 h and 72 h in triplicates. All the (Dau=Aoa-LRRY)–BBN (7-14) conjugates have a similar degradation profile and they quickly release the active metabolite Dau=Aoa-Leu-OH, which can be detected after 15 min (Figure 3). […] Its signal cannot be detected anymore already after 1 h.
The rat liver lysosomal homogenate was prepared based on our previously published procedure, with small modifications: livers from two male Wistar rats (32.6 g and 41.2 g, respectively) were collected, minced with a knife and homogenised in two volumes of ice-cold 0.3 M sucrose, using a T25 Ultra Turrax homogenizer (∼100 mL). […] The protein concentration was determined by measuring the absorbance at 260 nm and 280 nm, and was calculated using the formula: Concentration (μg/μL) = 1.55 ∗ A280 − 0.76 ∗ A260; it was determined as 71.76 μg/μL. […]
The conjugates (2.5 μg/μL in DMSO, 5 μL) were diluted with 0.2 M NaOAc solution (pH 5.05, 495 μL) to 0.025 μg/μL. […] The composition of the samples was determined by HPLC-MS.

Another data set deals with mice. Conditions: mouse experimental model; cited from earlier work. As to the method:
Before testing the effect of our newly developed PDCs on tumour growth in vivo, we performed a chronic toxicity study to determine the ideal dosage of the compounds. Administration of daunorubicin is shown to cause severe cardiotoxic side effects, therefore, its maximum tolerated dose is 1 mg/kg in the case of our experimental model. However, when conjugated to targeting moieties, its side effects can be reduced; moreover, its tumour inhibition capabilities can be increased.

A further data set relates to MRC-5 human fibroblasts. Description: Toxicity on non-cancerous cells (dose-response curves). Format: cell-based. Conditions: Figure S15. The text has this:
The lack of toxicity of the conjugates on healthy cells was checked on MRC-5 human fibroblasts, proving that they are non-toxic on non-cancerous cells (see Supplementary Materials, Figure S15).
Figure S15. Dose-response curves of the PDCs and Dau on MRC-5 human fibroblast cell line. Only […]
Figure S16. Flow cytometry measurements for the uptake of all the PDCs on MDA-MB-231 (A), MDA-MB-453 (B) and PC-3 (C) human cancer cell lines. The percentage of cells containing the Dau-conjugates was evaluated on four concentrations (%, mean ± SD, n= 2). Given that above 12.5 µM the internalisation may not only be receptor-mediated, this concentration was considered to com-pare the uptake of the bioconjugates. […]

Data set [4] has as its system PC-3 human prostatic adenocarcinoma xenograft in NOD-SCID mice. Description: In vivo tumour growth inhibition, subcutaneous PC-3 xenograft. Set-up: species or system mouse. Conditions: free drug 1 mg/kg, two treatments, n = 8. As to the method: The testing of the antitumour conjugates was carried out in a murine xenograft model. It was established by inoculating subcutaneously 100 µL of cell suspension of PC-3 prostate cancer cells with a concentration of 2 × 10^7 cells/mL.
Once the tumour volume reached 60 mm^3, mice were randomised and assigned to different groups for each treatment, respectively 0.9% saline as control, free daunorubicin, L5, and L6. Each group consisted of eight mice. Peptide–drug conjugates were injected intraperitoneally every 5th day, five times in total (daunorubicin dosage of 10 mg/kg for each treatment). In the case of free daunorubicin, two treatments were administered at the same time points as the first two treatments with conjugates, with a dosage of 1 mg/kg, the maximum tolerated dose (MTD). Weight and tumour size of mice were monitored throughout the whole experiment, two times per week. On day 33, mice were euthanized, and primary tumour, heart, lung, liver and spleen were harvested and stored in 4% formalin (Molar Chemicals, Halásztelek, Hungary). After 2–3 days of incubation in formalin, tissue samples were examined macroscopically. Organs and primary tumours from the different treatment groups were weighed and inspected under a stereomicroscope to see any occurrent changes in morphology compared to the controls.

Data set [5] has as its system MDA-MB-231 human breast adenocarcinoma cells. In words: MTT assay, in vitro cytostatic effect. The data set is classed as cell-based. The conditions noted are these: Homo sapiens, MDA-MB-231, 24 h treatment at 3.125–25 µM, then cultured up to 72 h, mean ± SD, n = 2 independent experiments with four parallels. As to the method: (§1) Cells were distributed into 96-well tissue culture plates with an initial cell number of 5.0 × 10^3 per well. After 24 h incubation at 37 °C, the cells were treated with the compounds in 200 µL final volume containing 1.0 v/v% DMSO and 10% H2O. […] After incubation, the cells were washed twice with a serum-free medium. To determine the in vitro cytostatic effect, the cells were further cultured up to 72 h in a 10% serum-containing medium. A solution of 3-(4,5-dimethylthiazol-2-yl)-2,5-diphenyltetrazolium bromide and MTT-solution, (45 µL, 2 mg/mL, final concentration: […]) were added to each well. The respiratory chain [67] and other electron transport systems reduce MTT, and thereby form non-water-soluble violet formazan crystals within the cell. […] After 3 h of incubation, the cells were centrifuged for 5 min at 1000 g and the supernatant was removed. The obtained formazan crystals were dissolved in DMSO (100 μL) and the optical density (OD) of the samples was measured at λ = 540 and 620 nm, respectively, using ELISA Reader (iEMS Reader, Labsystems, Finland). OD620 values were subtracted from OD540 values. The percentage of cytostasis was calculated by using the following equation:Cytostatic effect (%) = [1 − (ODtreated/ODcontrol)] × 100(1)
(§2) Values of ODtreated and ODcontrol correspond to the optical densities of the treated and the control cells, respectively. In each case, two independent experiments were carried out with four parallel measurements. The 50% inhibitory concentration (IC50) values were determined from the dose–response curves. The curves were defined using Microcal™ Origin 2018 software: cytostasis was plotted as a function of concentration, fitted to a sigmoidal curve, and based on this curve, the half-maximal inhibitory concentration (IC50) value was determined. IC50 represents the concentration of a compound that is required for 50% inhibition in vitro and is expressed in micromolar units.
Background: Tetrazolium dyes change colour on reduction, which living cells bring about.

Data set [6] concerns MDA-MB-453 human metastatic epithelial breast carcinoma cells. Description: MTT assay, in vitro cytostatic effect. Format: cell-based. Conditions: Homo sapiens, MDA-MB-453, 24 h treatment at 3.125–25 µM, then cultured up to 72 h, mean ± SD, n = 2 independent experiments with four parallels. As to the method:
as §1, §2

The test system of data set [7] is PC-3 human prostate adenocarcinoma cells. Description: MTT assay, in vitro cytostatic effect. Format: cell-based. The conditions noted are these: Homo sapiens, 24 h treatment at 3.125–25 µM, then cultured up to 72 h, mean ± SD, n = 2 independent experiments with four parallels. As to the method: as §1, §2

With `CCCC[C@H](NC(=O)[C@H](CC(C)C)NC(=O)[C@H](Cc1c[nH]cn1)NC(=O)CNC(=O)[C@@H](NC(=O)[C@H](C)NC(=O)[C@H](Cc1c[nH]c2ccccc12)NC(=O)[C@H](CCC(N)=O)NC(=O)[C@H](Cc1ccc(O)cc1)NC(=O)[C@H](CCCNC(=N)N)NC(=O)[C@H](CCCNC(=N)N)NC(=O)[C@H](CC(C)C)NC(=O)CON=C(C)[C@]1(O)Cc2c(O)c3c(c(O)c2[C@@H](O[C@H]2C[C@H](N)[C@H](O)[C@H](C)O2)C1)C(=O)c1c(OC)cccc1C3=O)C(C)C)C(N)=O` [L1, (Dau=Aoa)-LRRY-BBN(7-14)[Nle14]] ({Daunorubicin(13-NOCH2CO)}-LRRYQWAVGHL[Nle]-NH2), the time to release of active metabolite Dau=Aoa-Leu-OH is less than 30 min. The “Loss of conjugate after 3 h” value in data set [1] was less than 20%. For the same compound, the “Time after which release of the toxic metabolite Dau=Aoa-Leu-OH starts” value in [2] (10 µM, for L5 and L6 in a considerably low amount) is on record as 2 h. Besides, the remaining at 8 h, 10 μM in data set [2] (600 rpm, n = 3, read-out: Detected fraction after 8 h) turned out to be 20%. Also, in data set [2] (600 rpm, n = 3, read-out: t1/2 in mouse plasma (converted)), the half-life at 10 μM is 3.8 h. Further, the “Time after which the signal of the intact conjugate cannot be detected anymore” value in data set [3] is no more than 1 h.
In the case of `COc1cccc2c1C(=O)c1c(O)c3c(c(O)c1C2=O)C[C@@](O)(C(C)=O)C[C@@H]3O[C@H]1C[C@H](N)[C@H](O)[C@H](C)O1` [Dau, daunorubicin, reference compound], the Maximum tolerated dose in the data set with mice was 1 mg/kg. In the data set with MRC-5 human fibroblasts, the “Toxicity on MRC-5 human fibroblasts” value is “reveals toxicity”. Besides, in [4], the “Day at which fitness of mice decreased to a critical state” value worked out at 26 days. For the same compound, in data set [4], the “Effect on tumour growth” value is recorded as “did not significantly reduce tumour growth”. Also, the values for the IC50 in data set [5], in data set [6] and in [7] were 900 ± 60 nM, 810 ± 70 nM and 750 ± 10 nM, respectively.
